48 compounds from patent publication US8481538B2, “Heterocyclic inhibitors of c-Met and uses thereof” (Vertex Pharmaceuticals Incorporated, priority 2006, dated 2013) can be followed below.

The term Ki denotes a dissociation constant, usually derived from enzyme kinetics or from competition with a known ligand. A higher Ki goes with a looser hold on the target.

Some results are limits rather than exact numbers.

Sequence of c-Met (P08581 25-1390): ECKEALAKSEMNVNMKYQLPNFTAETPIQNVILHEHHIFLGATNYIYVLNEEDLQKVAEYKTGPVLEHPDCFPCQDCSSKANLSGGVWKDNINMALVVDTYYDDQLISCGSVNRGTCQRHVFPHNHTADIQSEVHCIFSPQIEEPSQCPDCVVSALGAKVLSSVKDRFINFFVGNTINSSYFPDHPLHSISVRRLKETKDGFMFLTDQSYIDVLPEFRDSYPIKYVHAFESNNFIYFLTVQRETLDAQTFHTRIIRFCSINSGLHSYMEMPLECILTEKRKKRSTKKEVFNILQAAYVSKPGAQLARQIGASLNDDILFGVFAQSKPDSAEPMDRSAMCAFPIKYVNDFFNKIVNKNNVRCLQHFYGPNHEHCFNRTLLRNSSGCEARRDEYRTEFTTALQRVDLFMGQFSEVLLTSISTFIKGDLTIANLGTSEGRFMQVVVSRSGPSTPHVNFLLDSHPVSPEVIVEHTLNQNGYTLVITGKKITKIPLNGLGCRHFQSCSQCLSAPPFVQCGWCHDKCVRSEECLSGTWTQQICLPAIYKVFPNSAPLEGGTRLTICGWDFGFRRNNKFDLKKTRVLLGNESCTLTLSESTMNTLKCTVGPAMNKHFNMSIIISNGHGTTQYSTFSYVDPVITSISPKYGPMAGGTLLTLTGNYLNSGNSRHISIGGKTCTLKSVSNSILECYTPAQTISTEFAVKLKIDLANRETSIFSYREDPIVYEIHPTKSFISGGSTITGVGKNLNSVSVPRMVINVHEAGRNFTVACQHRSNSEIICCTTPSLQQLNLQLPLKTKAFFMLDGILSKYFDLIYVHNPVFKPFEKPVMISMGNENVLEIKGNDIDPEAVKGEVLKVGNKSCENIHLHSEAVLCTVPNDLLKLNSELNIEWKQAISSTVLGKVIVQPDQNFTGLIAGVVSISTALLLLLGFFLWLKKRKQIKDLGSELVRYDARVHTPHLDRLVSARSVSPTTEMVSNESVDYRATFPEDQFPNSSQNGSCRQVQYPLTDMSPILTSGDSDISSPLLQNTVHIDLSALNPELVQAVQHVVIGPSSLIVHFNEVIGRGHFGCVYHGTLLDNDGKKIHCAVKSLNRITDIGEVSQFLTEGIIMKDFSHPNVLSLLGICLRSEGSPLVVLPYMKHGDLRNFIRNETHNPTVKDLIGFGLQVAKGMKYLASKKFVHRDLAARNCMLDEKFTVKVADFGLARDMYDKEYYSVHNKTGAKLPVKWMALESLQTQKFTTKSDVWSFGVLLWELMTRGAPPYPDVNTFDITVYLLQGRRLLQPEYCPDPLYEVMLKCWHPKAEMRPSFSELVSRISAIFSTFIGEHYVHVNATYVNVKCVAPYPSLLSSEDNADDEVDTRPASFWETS

In the assay the target is c-Met (Homo sapiens, UniProt P08581). Put plainly: Ki determination for the inhibition of c-Met (standard radiometric kinase assay). Format: biochemical. Particulars: radiometric 33P-ATP assay, 1.0 nM c-Met, 35 μM ATP, 0.5 mg/mL polyE4Y, competitive tight-binding fit. How it is done:
Ki Determination for the Inhibition of c-Met
Compounds of the invention were screened for their ability to inhibit c-Met kinase activity using a standard radiometric assay. Briefly, in this kinase assay the transfer of the terminal ^33P-phosphate in ^33P-ATP to substrate polyE4Y is interrogated. The assay was carried out in 96-well plates to a final volume of 100 μL per well containing 1.0 nM c-Met, 100 mM HEPES (pH 7.5), 10 mM MgCl2, 25 mM NaCl, 0.01% BSA, 1 mM DTT, 0.5 mg/mL polyE4Y, and 35 μM ATP. Accordingly, compounds of the invention were dissolved in DMSO to make 10 mM initial stock solutions. Serial dilutions in DMSO were then made to obtain the final solutions for the assay. A 1.5 μL aliquot of DMSO or inhibitor in DMSO was added to each well. The reaction was initiated by the addition of ^33P-ATP and polyE4Y (obtained from Sigma). After 20 min, the reaction was quenched with 50 μL of 30% trichloroacetic acid (TCA) containing 4 mM ATP. The reaction mixture was transferred to the 0.66 mm GF filter plates (Corning) and washed three times with 5% TCA. Following the addition of 50 μL of Ultimate Gold™ high efficiency scintillant (Packard Bioscience), the samples were counted in a Packard TopCount NXT Microplate Scintillation and Luminescence Counter (Packard BioScience). The Ki values were calculated using Microsoft Excel Solver macros to fit the data to the kinetic model for competitive tight-binding inhibition.
Take `C[C@@H](NC(=O)c1nc(-c2ccccc2)cnc1N)c1nnc2ccc(Nc3cccc(Cl)c3)nn12` [Compound 21]: the Ki is not above 250 nM.
`C[C@@H](NC(=O)c1nc(-c2cnn(C)c2)cnc1N)c1nnc2ccc(-c3ccccc3)nn12` [Compound 82] showed an inhibition constant (Ki) of 250 to 2500 nM.
In turn, `C[C@@H](NC(=O)c1nc(-c2ccc(CN(C)C)cc2)cnc1N)c1nnc2ccc(Nc3cccc(Cl)c3)nn12` [Compound 76] yielded an inhibition constant Ki not above 250 nM.
Turning to `C[C@@H](NC(=O)c1nc(-c2ccc(N3CCNCC3)cc2)cnc1N)c1nnc2ccc(Nc3cccc(Cl)c3)nn12` [Compound 72], the Ki is not above 250 nM.
With `Clc1cccc(Nc2ccc3nnc(COCc4cccnc4)n3n2)c1` [Compound 2, 3-(((pyridin-3-yl)methoxy)methyl)-N-(3-chlorophenyl)-[1,2,4]triazolo[4,3-b]pyridazin-6-amine] the figure was not above 250 nM.
With `C[C@@H](NC(=O)c1nc(C#CCO)cnc1N)c1nnc2ccc(Nc3cccc(Cl)c3)nn12` [Compound 43] the figure was not above 250 nM.
In turn, `C[C@@H](NC(=O)c1nc(C#CC2(O)CCCC2)cnc1N)c1nnc2ccc(Nc3cccc(Cl)c3)nn12` [Compound 45] had a Ki of 250 to 2500 nM.
Regarding `C[C@H](NC(=O)c1nc(-c2ccccc2)cnc1N)c1nnc2ccc(Nc3cccc(Cl)c3)nn12` [Compound 28], the inhibition constant (Ki) is 250 to 2500 nM.
With `C[C@@H](NC(=O)c1cccnc1N)c1nnc2ccc(Nc3cccc(Cl)c3)nn12` [Compound 13], the Ki lay in the range of 250 to 2500 nM.
As for `C[C@@H](NC(=O)c1nc(-c2ccc(CN3CCCC3)c(F)c2)cnc1N)c1nnc2ccc(Nc3cccc(Cl)c3)nn12` [Compound 70], the Ki was not above 250 nM.
With `C=Cc1cnc(N)c(C(=O)N[C@H](C)c2nnc3ccc(Nc4cccc(Cl)c4)nn23)n1` [Compound 37] the figure was not above 250 nM.
For the compound `CCC(O)C#Cc1cnc(N)c(C(=O)N[C@H](C)c2nnc3ccc(Nc4cccc(Cl)c4)nn23)n1` (stereo partly drawn) [Compound 46], the inhibition constant (Ki) is not above 250 nM.
The same measure for `C[C@@H](NC(=O)c1nc(-c2cnn(C3CCNCC3)c2)cnc1N)c1nnc2ccc(-c3ccccc3)nn12` [Compound 83]: not above 250 nM; for `C[C@@H](NC(=O)c1nc(-c2ccc(C3(O)CCNCC3)cc2)cnc1N)c1nnc2ccc(Nc3cccc(Cl)c3)nn12` [Compound 68]: not above 250 nM; for `CCC(C)Nc1ccc2nnc([C@@H](C)NC(=O)c3nc(-c4ccc(NC(C)=O)cc4)cnc3N)n2n1` (stereo partly drawn) [Compound 26]: 250 to 2500 nM.
With `C[C@@H](NC(=O)c1nc(-c2ccc(CN3CCCC3)cc2)cnc1N)c1nnc2ccc(-c3ccccc3)nn12` [Compound 80] the figure was not above 250 nM; with `C[C@@H](NC(=O)Nc1cccnc1)c1nnc2ccc(Nc3cccc(Cl)c3)nn12` [Compound 15, 1-((R)-1-(6-(3-chlorophenylamino)-[1,2,4]triazolo[4,3-b]pyridazin-3-yl)ethyl)-3-(pyridin-3-yl)urea], 250 to 2500 nM.
As for `C[C@@H](NC(=O)c1nc(C2CCCC2)cnc1N)c1nnc2ccc(Nc3cccc(Cl)c3)nn12` [Compound 40], the Ki is not above 250 nM.
With `CCC(C)Nc1ccc2nnc([C@@H](C)NC(=O)c3nc(-c4ccccc4)cnc3N)n2n1` (stereo partly drawn) [Compound 25] the figure was 250 to 2500 nM; with `C[C@@H](NC(=O)c1nc(-c2ccc(CN3CC[C@@H](O)C3)cc2)cnc1N)c1nnc2ccc(Nc3cccc(Cl)c3)nn12` [Compound 66], not above 250 nM; with `CN(Cc1cccnc1)Cc1nnc2ccc(Nc3cccc(Cl)c3)nn12` [Compound 1], not above 250 nM.
With `C[C@@H](NC(=O)c1nc(-c2cccs2)cnc1N)c1nnc2ccc(-c3ccccc3)nn12` [Compound 81] the figure was 250 to 2500 nM.
`C[C@@H](NC(=O)c1nc(C#CC(C)(C)C)cnc1N)c1nnc2ccc(Nc3cccc(Cl)c3)nn12` [Compound 51]: the inhibitory constant (Ki) lay within 250 to 2500 nM.
As for `C[C@@H](NC(=O)c1nc(C#Cc2cccnc2)cnc1N)c1nnc2ccc(Nc3cccc(Cl)c3)nn12` [Compound 56], the inhibitory constant (Ki) was in the range of 250 to 2500 nM.
With `O=C(Cc1nnc2ccc(Nc3cccc(Cl)c3)nn12)Nc1cnccn1` [Compound 5] the figure was more than 2500 nM.
Consider `CCc1cnc(N)c(C(=O)N[C@H](C)c2nnc3ccc(Nc4cccc(Cl)c4)nn23)n1` [Compound 52], for which the Ki was 250 to 2500 nM.
As for `C[C@@H](NC(=O)c1nc(-c2ccc(CN3CC[C@H](O)C3)cc2)cnc1N)c1nnc2ccc(Nc3cccc(Cl)c3)nn12` [Compound 67], the inhibitory constant (Ki) is not above 250 nM.
With `CN(C(=O)Cc1nnc2ccc(Nc3cccc(Cl)c3)nn12)c1ccccn1` [Compound 7] the figure was more than 2500 nM; with `C[C@@H](NC(=O)c1nc(C#CC2CC2)cnc1N)c1nnc2ccc(Nc3cccc(Cl)c3)nn12` [Compound 61], 250 to 2500 nM; with `Cc1nn2c([C@@H](C)NC(=O)c3nc(-c4ccccc4)cnc3N)nnc2s1` [Compound 75], 250 to 2500 nM.
As to `C[C@@H](NC(=O)c1cnc2ccccc2n1)c1nnc2ccc(Nc3cccc(Cl)c3)nn12` [Compound 16], the inhibitory constant (Ki) fell in the range of 250 to 2500 nM.
The same measure for `Nc1cccnc1NC(=O)Cc1nnc2ccc(Nc3cccc(Cl)c3)nn12` [Compound 8]: 250 to 2500 nM; for `O=C(Cc1nnc2ccc(Nc3cccc(Cl)c3)nn12)NCc1cccnc1` [Compound 6]: more than 2500 nM; for `Clc1cccc(Nc2ccc3nnc(CNCc4ccccn4)n3n2)c1` [Compound 3]: more than 2500 nM.
`C[C@@H](NC(=O)c1nc(-c2ccc(CN)cc2)cnc1N)c1nnc2ccc(Nc3cccc(Cl)c3)nn12` [Compound 65] came in with a Ki not above 250 nM.
In the case of `C[C@@H](NC(=O)c1nc(-c2ccoc2)cnc1N)c1nnc2ccc(Nc3cccc(Cl)c3)nn12` [Compound 32], the Ki was not above 250 nM.
With `C[C@@H](NC(=O)c1nc(-c2cnn(C3CCNCC3)c2)cnc1N)c1nnc2ccc(Nc3cccc(Cl)c3)nn12` [Compound 62] the figure was not above 250 nM.
The same measure for `C[C@@H](NC(=O)c1cc(-c2ccccc2)cnc1N)c1nnc2ccc(Nc3cccc(Cl)c3)nn12` [Compound 23]: not above 250 nM; for `Cc1ccc2nnc([C@@H](C)NC(=O)c3nc(-c4ccc(CN5CCCC5)cc4)cnc3N)n2n1` [Compound 79]: 250 to 2500 nM; for `C[C@@H](NC(=O)c1nc(C(N)=O)cnc1N)c1nnc2ccc(Nc3cccc(Cl)c3)nn12` [Compound 39]: not above 250 nM.
The same measure for `Clc1cccc(Nc2ccc3nnc(CNCc4cccnc4)n3n2)c1` [Compound 4]: more than 2500 nM; for `Nc1ncc(-c2ccccc2)nc1C(=O)N[C@H](CO)c1nnc2ccc(Nc3cccc(Cl)c3)nn12` [Compound 30]: not above 250 nM.
Turning to `Clc1cccc(Nc2ccc3nnc(COCc4cnccn4)n3n2)c1` [Compound 19], the Ki was more than 2500 nM.
Turning to `Cc1n[nH]c(C)c1-c1cnc(N)c(C(=O)N[C@H](C)c2nnc3ccc(Nc4cccc(Cl)c4)nn23)n1` [Compound 54], the Ki was not above 250 nM.
The same measure for `C[C@@H](NC(=O)c1cccnc1)c1nnc2ccc(Nc3cccc(Cl)c3)nn12` [Compound 10]: more than 2500 nM; for `CCCC#Cc1cnc(N)c(C(=O)N[C@H](C)c2nnc3ccc(Nc4cccc(Cl)c4)nn23)n1` [Compound 50]: 250 to 2500 nM.
With `C[C@@H](NC(=O)c1nc(-c2cccc(N3CCNCC3)c2)cnc1N)c1nnc2ccc(Nc3cccc(Cl)c3)nn12` [Compound 69] the figure was not above 250 nM; with `C[C@@H](NC(=O)c1nc(C#Cc2ccccn2)cnc1N)c1nnc2ccc(Nc3cccc(Cl)c3)nn12` [Compound 53], 250 to 2500 nM.
